From patent US20050271643A1, “Bacterial strains, compositions including same and probiotic use thereof” (priority 2003, published 2005)
Where two headings read alike, the source gives them in different places.

Tests used:
B. subtilis HE = test: Antibiogram by disc diffusion method; format: cell-based, Bacillus subtilis; settings: for Zone of inhibition: 6 mm antibiotic discs, Mueller-Hinton plates, 18 hours at 37° C., strain B. subtilis HE
B. licheniformis PA = test: Antibiogram by disc diffusion method; format: cell-based, Bacillus licheniformis
[1] = 6 mm antibiotic discs, Mueller-Hinton plates, 18 hours at 37° C., strain B. licheniformis PA

| Compound | Zone of inhibition (B. subtilis HE) [mm] | Zone of inhibition (B. licheniformis PA; [1]) [mm] | Sensitivity or resistance of the strain to the antibiotic (in words) (B. subtilis HE) | Sensitivity or resistance of the strain to the antibiotic (in words) (B. licheniformis PA; strain B. licheniformis PA) | Zone of inhibition (B. licheniformis PA) [mm] |
| --- | --- | --- | --- | --- | --- |
| NCC[C@H](O)C(=O)N[C@@H]1C[C@H](N)[C@@H](O[C@H]2O[C@H](CN)[C@@H](O)[C@H](O)[C@H]2O)[C@H](O)[C@H]1O[C@H]1O[C@H](CO)[C@@H](O)[C@H](N)[C@H]1O [Amikacin] | 20 ± 0.2 | 18 ± 0.1 |  |  |  |
| CC1(C)S[C@@H]2[C@H](NC(=O)[C@H](N)c3ccc(O)cc3)C(=O)N2[C@H]1C(=O)O [Amoxicillin] | 18 ± 0.1 | 16 ± 0.1 |  |  |  |
| CC1(C)S[C@@H]2[C@H](NC(=O)[C@H](N)c3ccccc3)C(=O)N2[C@H]1C(=O)O [Ampicillin] | 10 ± 0.3 | 0 | sensitive | resistant |  |
| CC1(C)S[C@@H]2[C@H](NC(=O)[C@H](NC(=O)N3CCNC3=O)c3ccccc3)C(=O)N2[C@H]1C(=O)O [Azlocillin] | 18 ± 0.2 | 16 ± 0.1 |  |  |  |
| C[C@H]1[C@H](NC(=O)/C(=N\OC(C)(C)C(=O)O)c2csc(N)n2)C(=O)N1S(=O)(=O)O [Aztreonam] | 0 | 0 | resistant |  |  |
| CC1(C)S[C@@H]2[C@H](NC(=O)Cc3ccccc3)C(=O)N2[C@H]1C(=O)O [Benzylpenicillin] | 8 ± 0.1 | 0 | sensitive |  |  |
| CC1(C)S[C@@H]2[C@H](NC(=O)C(C(=O)O)c3ccccc3)C(=O)N2[C@H]1C(=O)O (stereo partly shown) [Carbenicillin] | 24 ± 0.4 | 18 ± 0.3 | sensitive | sensitive |  |
| Cn1nnnc1SCC1=C(C(=O)O)N2C(=O)[C@@H](NC(=O)[C@H](O)c3ccccc3)[C@H]2SC1 [Cefamandol] | 37 ± 0.1 | 16 ± 0.1 |  |  |  |
| CCN1CCN(C(=O)N[C@@H](C(=O)N[C@@H]2C(=O)N3C(C(=O)O)=C(CSc4nnnn4C)CS[C@H]23)c2ccc(O)cc2)C(=O)C1=O [Cefoperazon] | 16 ± 0.1 | 12 ± 0.2 |  |  |  |
| CO/N=C(\C(=O)N[C@@H]1C(=O)N2C(C(=O)O)=C(COC(C)=O)CS[C@H]12)c1csc(N)n1 [Cefotaxim] | 14 ± 0.2 | 10 ± 0.2 |  |  |  |
| CO[C@@]1(NC(=O)Cc2cccs2)C(=O)N2C(C(=O)O)=C(COC(N)=O)CS[C@@H]21 [Cefoxitin] | 16 ± 0.3 | 12 ± 0.3 |  |  |  |
| CC(C)(O/N=C(\C(=O)N[C@@H]1C(=O)N2C(C(=O)[O-])=C(C[n+]3ccccc3)CS[C@H]12)c1csc(N)n1)C(=O)O [Ceftazidim] | 8 ± 0.2 | 0 | sensitive |  |  |
| CO/N=C(\C(=O)N[C@@H]1C(=O)N2C(C(=O)O)=CCS[C@H]12)c1csc(N)n1 [Ceftizoxim] | 0 | 0 |  |  |  |
| CO/N=C(\C(=O)N[C@@H]1C(=O)N2C(C(=O)O)=C(CSc3nc(=O)c(=O)[nH]n3C)CS[C@H]12)c1csc(N)n1 [Ceftriaxon] | 18 ± 0.3 | 12 ± 0.2 |  |  |  |
| CO/N=C(\C(=O)N[C@@H]1C(=O)N2C(C(=O)O)=C(COC(N)=O)CS[C@H]12)c1ccco1 [Cefuroxim] | 0 | 0 | resistant | resistant |  |
| CC(=O)OCC1=C(C(=O)O)N2C(=O)[C@@H](NC(=O)Cc3cccs3)[C@H]2SC1 [Cephalothin] | 32 ± 0.5 | 20 ± 0.4 |  |  |  |
| O=C(N[C@H](CO)[C@H](O)c1ccc([N+](=O)[O-])cc1)C(Cl)Cl [Chloramphenicol] | 16 ± 0.2 | 10 ± 0.1 |  |  |  |
| CCC[C@@H]1C[C@@H](C(=O)N[C@@H]([C@H]2O[C@H](SC)[C@H](O)[C@@H](O)[C@H]2O)[C@H](C)Cl)N(C)C1 [Clindamycin] | 10 ± 0.3 | 0 |  |  |  |

| Compound | Zone of inhibition (B. subtilis HE) [mm] | Zone of inhibition (B. licheniformis PA; [1]) [mm] | Sensitivity or resistance of the strain to the antibiotic (in words) (B. subtilis HE) | Sensitivity or resistance of the strain to the antibiotic (in words) (B. licheniformis PA; strain B. licheniformis PA) | Zone of inhibition (B. licheniformis PA) [mm] |
| --- | --- | --- | --- | --- | --- |
| C[C@@H](O)[C@H]1C(=O)N2C(C(=O)O)=C(SCCN=CN)C[C@H]12 [Imipenem] | 36 ± 0.4 | 32 ± 0.3 |  |  |  |
| NC[C@H]1O[C@H](O[C@H]2[C@H](O)[C@@H](O[C@H]3O[C@H](CO)[C@@H](O)[C@H](N)[C@H]3O)[C@H](N)C[C@@H]2N)[C@H](O)[C@@H](O)[C@@H]1O [Kanamycin] | 23 ± 0.1 | 20 ± 0.1 |  |  |  |
| COc1cccc(OC)c1C(=O)N[C@@H]1C(=O)N2[C@@H]1SC(C)(C)[C@@H]2C(=O)O [Methicillin] | 18 ± 0.1 | 0 | sensitive | resistant |  |
| CC1(C)S[C@@H]2[C@H](NC(=O)[C@H](NC(=O)N3CCN(S(C)(=O)=O)C3=O)c3ccccc3)C(=O)N2[C@H]1C(=O)O [Mezlocillin] | 20 ± 0.3 | 17 ± 0.2 |  |  |  |
| CO[C@@]1(NC(=O)C(C(=O)O)c2ccc(O)cc2)C(=O)N2C(C(=O)O)=C(CSc3nnnn3C)CO[C@@H]21 (stereo partly shown) [Moxalactam] | 12 ± 0.3 | 12 ± 0.3 |  |  |  |
| O=C1CN(/N=C/c2ccc([N+](=O)[O-])o2)C(=O)N1 [Nitrofurantoin] | 16 ± 0.2 | 18 ± 0.1 |  |  |  |
| CCn1cc(C(=O)O)c(=O)c2cc(F)c(N3CCNCC3)cc21 [Norfloxacin] | 24 ± 0.2 | 24 ± 0.2 |  |  |  |
| Cc1onc(-c2ccccc2)c1C(=O)N[C@@H]1C(=O)N2[C@@H]1SC(C)(C)[C@@H]2C(=O)O [Oxacillin] | 14 ± 0.3 | 0 | sensitive |  |  |
| CCN1CCN(C(=O)N[C@@H](C(=O)N[C@@H]2C(=O)N3[C@@H]2SC(C)(C)[C@@H]3C(=O)O)c2ccccc2)C(=O)C1=O [Piperacillin] | 18 ± 0.3 | 12 ± 0.1 |  |  |  |
| CN(C)[C@@H]1C(O)=C(C(N)=O)C(=O)[C@@]2(O)C(O)=C3C(=O)c4c(O)cccc4[C@@](C)(O)[C@H]3C[C@@H]12 [Tetracycline] | 24 ± 0.3 |  |  |  | 24 ± 0.2 |
| CC1(C)S[C@@H]2[C@H](NC(=O)[C@H](C(=O)O)c3ccsc3)C(=O)N2[C@H]1C(=O)O [Ticarcillin] | 24 ± 0.4 | 20 ± 0.1 | sensitive | sensitive |  |
| NC[C@H]1O[C@H](O[C@H]2[C@H](O)[C@@H](O[C@H]3O[C@H](CO)[C@@H](O)[C@H](N)[C@H]3O)[C@H](N)C[C@@H]2N)[C@H](N)C[C@@H]1O [Tobramycin] | 24 ± 0.3 | 20 ± 0.2 |  |  |  |
| COc1cc(Cc2cnc(N)nc2N)cc(OC)c1OC [Trimethoprim] | 24 ± 0.1 | 24 ± 0.1 |  |  |  |
| CN[C@H](CC(C)C)C(=O)N[C@H]1C(=O)N[C@@H](CC(N)=O)C(=O)N[C@H]2C(=O)N[C@H]3C(=O)N[C@H](C(=O)N[C@H](C(=O)O)c4cc(O)cc(O)c4-c4cc3ccc4O)[C@H](O)c3ccc(c(Cl)c3)Oc3cc2cc(c3O[C@@H]2O[C@H](CO)[C@@H](O)[C@H](O)[C@H]2O[C@H]2C[C@](C)(N)[C@H](O)[C@H](C)O2)Oc2ccc(cc2Cl)[C@H]1O [Vancomycin] | 12 ± 0.1 |  |  |  | 12 ± 0.1 |
| Bactrim | 30 ± 0.2 | 30 ± 0.1 |  |  |  |
| Gentamycin | 24 ± 0.2 | 20 ± 0.1 |  |  |  |
| Polymyxin E | 10 ± 0.1 | 0 | sensitive |  |  |
